How the values were obtained:
human EAAT3 = biological target: T1, human EAAT3 (Homo sapiens, UniProt P43005); assay: FLIPR Membrane Potential (FMP) assay; type: cell-based; conditions: HEK-293 cells stably expressing human EAAT3; antagonist applied 15 min before L-glutamate at EC80; Kb by Cheng-Prusoff from IC50
T1 construct: expressed in transfected cells
T1 sequence (P43005 1-524): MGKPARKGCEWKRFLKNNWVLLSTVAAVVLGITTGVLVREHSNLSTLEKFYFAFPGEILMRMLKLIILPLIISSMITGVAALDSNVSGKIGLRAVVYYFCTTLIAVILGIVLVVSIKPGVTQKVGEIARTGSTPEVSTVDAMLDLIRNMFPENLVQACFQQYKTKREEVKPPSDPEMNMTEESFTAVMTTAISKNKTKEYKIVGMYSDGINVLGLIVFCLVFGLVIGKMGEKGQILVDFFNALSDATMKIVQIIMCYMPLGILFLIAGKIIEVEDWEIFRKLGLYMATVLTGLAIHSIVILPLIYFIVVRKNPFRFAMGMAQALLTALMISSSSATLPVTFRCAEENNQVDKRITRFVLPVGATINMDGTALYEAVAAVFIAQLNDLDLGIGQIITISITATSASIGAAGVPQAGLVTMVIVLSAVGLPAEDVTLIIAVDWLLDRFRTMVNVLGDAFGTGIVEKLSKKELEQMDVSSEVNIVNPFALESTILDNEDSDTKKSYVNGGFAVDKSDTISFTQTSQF
Summary of the method: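 HEK-293 cells stably expressing human EAAT3, loaded with membrane-potential dye 1 h at 37 °C in Krebs buffer pH 7.4. Antagonists added 15 min before L-glutamate at EC80; peak fluorescence minus basal read on FLIPR at room temperature. Kb derived from IC50 via Cheng-Prusoff.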

melting point [°C] | Kb (human EAAT3) [µM] | Compound
190.5 | 0.26 | Cc1cc(-c2cc(C(=O)NC(C)(C)C)cc(-n3nnnc3C(C)(C)C)c2)ccc1F [Example 103, N-tert-Butyl-3-(5-tert-butyltetrazol-1-yl)-5-(4-fluoro-3-methylphenyl)-benzamide]
91.5 | 0.37 | Cc1ccc(-c2cc(C(=O)NC(C)(C)C3CC3)cc(-n3nnnc3C(C)(C)C)c2)cc1 [Example 109, 3-(5-tert-Butyltetrazol-1-yl)-N-(2-cyclopropylpropan-2-yl)-5-(4-methylphenyl)-benzamide]
85 | 0.23 | CC(C)c1nnnn1-c1cc(C(=O)NC(C)(C)C)cc(-c2ccc(F)cc2)c1 [Example 61, N-tert-Butyl-3-(4-fluorophenyl)-5-(5-propan-2-yltetrazol-1-yl)-benzamide]
261.5 | 0.21 | CC(C)(C#N)NC(=O)c1cc(-c2ccc(Cl)c(F)c2)cc(-n2nnnc2C(C)(C)C)c1 [Example 121, 3-(5-tert-Butyltetrazol-1-yl)-5-(4-chloro-3-fluorophenyl)-N-(2-cyanopropan-2-yl)-benzamide]
115 | 0.28 | CC(C)(C)NC(=O)c1cc(-c2ccc(C3CC3)cc2)cc(-n2nnnc2C(C)(C)C)c1 [Example 107, N-tert-Butyl-3-(5-tert-butyltetrazol-1-yl)-5-(4-cyclopropylphenyl)-benzamide]
186 | 0.11 | CC(C)(C)NC(=O)c1cc(-c2ccc(Cl)cc2)cc(-n2nnnc2C(F)(F)F)c1 [Example 75, N-tert-Butyl-3-(4-chlorophenyl)-5-[5-(trifluoromethyl)-tetrazol-1-yl]-benzamide]
82 | 0.15 | CC(C)(C)NC(=O)c1cc(-c2ccc(F)cc2)cc(-n2nnnc2C2CC2)c1 [Example 69, N-tert-Butyl-3-(5-cyclopropyltetrazol-1-yl)-5-(4-fluorophenyl)-benzamide]
108 | 0.55 | CC(C)(C)c1nnnn1-c1cc(C(=O)NC(C)(C)C(F)(F)F)cc(-c2ccc(C(F)(F)F)cc2)c1 [Example 116, 3-(5-tert-Butyltetrazol-1-yl)-5-[4-(trifluoromethyl)-phenyl]-N-(1,1,1-trifluoro-2-methylpropan-2-yl)-benzamide]
81 | 0.11 | CC(C)(NC(=O)c1cc(-c2ccc(F)cc2)cc(-n2nnnc2C2CC2)c1)C(F)(F)F [Example 73, 3-(5-Cyclopropyltetrazol-1-yl)-5-(4-fluorophenyl)-N-(1,1,1-trifluoro-2-methylpropan-2-yl)-benzamide]
92 | 0.52 | Cc1ccc(-c2cc(C(=O)NC(C)(C)C3CC3)cc(-n3nnnc3C(C)(C)C)c2)cc1F [Example 115, 3-(5-tert-Butyltetrazol-1-yl)-N-(2-cyclopropylpropan-2-yl)-5-(3-fluoro-4-methylphenyl)-benzamide]
240.5 | 0.29 | CC(C)(C)NC(=O)c1cc(-c2ccc(Cl)c(F)c2)cc(-n2nnnc2C(C)(C)C)c1 [Example 105, N-tert-Butyl-3-(5-tert-butyltetrazol-1-yl)-5-(4-chloro-3-fluorophenyl)-benzamide]

The next lines start with the compound.

Compound | melting point [°C] | Kb (human EAAT3) [µM]
CC(C)(NC(=O)c1cc(-c2ccc(Cl)cc2)cc(-n2nnnc2C2CC2)c1)C1CC1 [Example 81, 3-(4-Chlorophenyl)-N-(2-cyclopropylpropan-2-yl)-5-(5-cyclopropyl-tetrazol-1-yl)-benzamide] | 95 | 0.21
CCC(C)(C)NC(=O)c1cc(-c2ccc(F)c(C)c2)cc(-n2cnnn2)c1 [Example 6, 3-(4-Fluoro-3-methylphenyl)-N-(2-methylbutan-2-yl)-5-(tetrazol-1-yl)-benzamide] | 120 | 0.41
CC(C)c1nnnn1-c1cc(C(=O)NC(C)(C)CO)cc(-c2ccc(F)cc2)c1 [Example 62, 3-(4-Fluorophenyl)-N-(1-hydroxy-2-methylpropan-2-yl)-5-(5-propan-2-yltetrazol-1-yl)-benzamide] | 86.5 | 0.55
CCC(C)(C)NC(=O)c1cc(-c2ccc(F)cc2)cc(-n2cnnn2)c1 [Example 1, 3-(4-Fluorophenyl)-N-(2-methylbutan-2-yl)-5-(tetrazol-1-yl)-benzamide] | 200 | 0.145
CC(C)(C)c1nnnn1-c1cc(C(=O)NC(C)(C)C(F)(F)F)cc(-c2ccc(Cl)c(F)c2)c1 [Example 119, 3-(5-tert-Butyltetrazol-1-yl)-5-(4-chloro-3-fluorophenyl)-N-(1,1,1-trifluoro-2-methylpropan-2-yl)-benzamide] | 222 | 0.35
Cc1nnnn1-c1cc(C(=O)NC(C)(C)CO)cc(-c2ccc(F)cc2)c1 [Example 84, 3-(4-Fluorophenyl)-N-(1-hydroxy-2-methylpropan-2-yl)-5-(5-methyltetrazol-1-yl)-benzamide] | 85 | 0.78
CC(C)c1nnnn1-c1cc(C(=O)NC(C)(C)C(F)(F)F)cc(-c2ccc(F)cc2)c1 [Example 59, 3-(4-Fluorophenyl)-5-(5-propan-2-yltetrazol-1-yl)-N-(1,1,1-trifluoro-2-methylpropan-2-yl)-benzamide] | 80 | 0.31
CC1(NC(=O)c2cc(-c3ccc(Cl)cc3)cc(-n3nnnc3C(C)(C)C)c2)CCS(=O)(=O)C1 (racemic) [Example 89, (RS)-3-(5-tert-Butyltetrazol-1-yl)-5-(4-chlorophenyl)-N-(3-methyl-, 1-dioxothiolan-3-yl)benzamide] | 187 | 0.25
CCC(C)(C)NC(=O)c1cc(-c2ccc(Cl)cc2)cc(-n2nnnc2C)c1 [Example 66, 3-(4-Chlorophenyl)-N-(2-methylbutan-2-yl)-5-(5-methyltetrazol-1-yl)-benzamide] | 80.5 | 0.17
CCc1nnnn1-c1cc(C(=O)NC(C)(C)C(F)(F)F)cc(-c2ccc(C)cc2)c1 [Example 26, 3-(5-Ethyltetrazol-1-yl)-5-(4-methylphenyl)-N-(1,1,1-trifluoro-2-methylpropan-2-yl)-benzamide] | 78 | 0.3
